# Earlier results in article PMC11280411, “Phytochemical Investigation of Carex praecox Schreb. and ACE-Inhibitory Activity of Oligomer Stilbenes of the Plant” (Molecules, 2024).
# Tested on: SARS-CoV-2 USA-WA1/2020, B.1.1.7, and B.1.351 variants
# Parameters: method as in PMID 34543092
# Conditions: cited from earlier work
smiles,measurement,value
"Oc1ccc(C2Oc3cc(O)cc4c3C2c2cc(O)cc(O)c2C(c2ccc(O)cc2)C4C2c3cc(O)cc4c3C(c3cc(O)cc(O)c3C2c2ccc(O)cc2)C(c2ccc(O)cc2)O4)cc1 (single isomer, unassigned; (-)) [Compound 16, (–)-hopeaphenol]",inhibition of cellular entry of SARS-CoV-2,"inhibited cellular entry of SARS-CoV-2 USA-WA1/2020, B.1.1.7, and B.1.351 variants"
